# In ChEMBL document CHEMBL5291721, “A preclinical secondary pharmacology resource illuminates target-adverse drug reaction associations of marketed drugs” (Nat Commun, 2023):
# What was measured:
# [1] = biological target: T1, Estrogen receptor (Homo sapiens, UniProt P03372)
# T1 sequence (P03372 whole entry): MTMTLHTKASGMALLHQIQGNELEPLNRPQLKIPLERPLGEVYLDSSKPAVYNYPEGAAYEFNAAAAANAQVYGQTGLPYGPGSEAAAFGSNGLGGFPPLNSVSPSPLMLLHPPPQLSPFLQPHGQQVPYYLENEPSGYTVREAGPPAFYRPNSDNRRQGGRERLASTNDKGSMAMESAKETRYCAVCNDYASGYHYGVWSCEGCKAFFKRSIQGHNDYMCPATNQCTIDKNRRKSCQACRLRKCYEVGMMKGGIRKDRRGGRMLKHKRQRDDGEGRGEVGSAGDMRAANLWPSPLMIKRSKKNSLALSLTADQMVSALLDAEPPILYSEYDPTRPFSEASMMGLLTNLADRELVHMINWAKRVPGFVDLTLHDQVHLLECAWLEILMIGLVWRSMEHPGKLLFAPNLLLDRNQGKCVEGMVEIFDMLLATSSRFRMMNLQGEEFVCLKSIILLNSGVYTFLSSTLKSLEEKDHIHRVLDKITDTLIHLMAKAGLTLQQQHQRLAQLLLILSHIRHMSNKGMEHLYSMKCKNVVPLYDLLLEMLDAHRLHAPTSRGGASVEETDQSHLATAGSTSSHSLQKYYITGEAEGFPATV
# [2] = biological target: Gamma-aminobutyric acid receptor subunit alpha-1/alpha-2/beta-2/gamma-2 (Homo sapiens, UniProt P14867+P18507+P47869+P47870); assay type: functional, cell-based
# [3] = biological target: T1, Estrogen receptor; assay type: functional
# [4] = biological target: T2, Endothelin receptor type B (Homo sapiens, UniProt P24530)
# T2 sequence (P24530 whole entry): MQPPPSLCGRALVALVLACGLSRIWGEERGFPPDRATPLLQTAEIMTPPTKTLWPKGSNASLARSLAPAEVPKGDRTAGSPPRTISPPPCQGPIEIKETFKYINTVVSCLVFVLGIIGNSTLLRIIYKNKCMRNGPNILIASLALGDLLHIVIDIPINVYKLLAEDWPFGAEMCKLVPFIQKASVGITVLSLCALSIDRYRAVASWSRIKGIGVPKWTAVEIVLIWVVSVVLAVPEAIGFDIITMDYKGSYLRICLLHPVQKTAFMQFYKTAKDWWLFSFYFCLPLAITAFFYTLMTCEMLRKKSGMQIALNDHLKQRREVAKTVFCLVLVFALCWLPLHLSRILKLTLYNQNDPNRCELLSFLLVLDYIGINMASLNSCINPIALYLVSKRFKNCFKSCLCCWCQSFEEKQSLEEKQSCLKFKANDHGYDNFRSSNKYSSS
# [5] = biological target: T3, Alpha-1A adrenergic receptor (Homo sapiens, UniProt P35348)
# T3 sequence (P35348 whole entry): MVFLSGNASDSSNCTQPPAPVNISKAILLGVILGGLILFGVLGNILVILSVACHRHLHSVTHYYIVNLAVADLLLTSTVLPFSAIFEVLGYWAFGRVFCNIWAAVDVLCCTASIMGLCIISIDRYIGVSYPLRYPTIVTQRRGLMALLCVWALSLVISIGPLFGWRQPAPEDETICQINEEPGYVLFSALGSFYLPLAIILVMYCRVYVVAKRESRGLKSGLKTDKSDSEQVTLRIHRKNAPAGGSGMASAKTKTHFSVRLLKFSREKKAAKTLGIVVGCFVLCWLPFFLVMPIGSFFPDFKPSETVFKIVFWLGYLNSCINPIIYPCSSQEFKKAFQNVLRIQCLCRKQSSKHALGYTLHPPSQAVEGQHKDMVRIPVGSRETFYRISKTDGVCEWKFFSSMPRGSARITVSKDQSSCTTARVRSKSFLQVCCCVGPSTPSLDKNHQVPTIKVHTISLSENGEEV
# [6] = biological target: T4, 5-hydroxytryptamine receptor 1A (Homo sapiens, UniProt P08908)
# T4 sequence (P08908 whole entry): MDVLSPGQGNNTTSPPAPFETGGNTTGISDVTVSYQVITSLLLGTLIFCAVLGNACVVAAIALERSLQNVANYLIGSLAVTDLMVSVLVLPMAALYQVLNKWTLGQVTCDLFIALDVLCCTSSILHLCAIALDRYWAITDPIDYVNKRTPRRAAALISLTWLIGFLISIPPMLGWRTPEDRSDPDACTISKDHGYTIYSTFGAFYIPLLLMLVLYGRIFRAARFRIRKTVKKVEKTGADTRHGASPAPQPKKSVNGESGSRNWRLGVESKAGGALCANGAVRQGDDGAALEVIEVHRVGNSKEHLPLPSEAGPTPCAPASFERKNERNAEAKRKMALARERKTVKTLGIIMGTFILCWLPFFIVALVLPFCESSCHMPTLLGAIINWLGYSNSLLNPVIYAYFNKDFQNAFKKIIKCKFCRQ
# [7] = biological target: T5, Alpha-2A adrenergic receptor (Homo sapiens, UniProt P08913)
# T5 sequence (P08913 whole entry): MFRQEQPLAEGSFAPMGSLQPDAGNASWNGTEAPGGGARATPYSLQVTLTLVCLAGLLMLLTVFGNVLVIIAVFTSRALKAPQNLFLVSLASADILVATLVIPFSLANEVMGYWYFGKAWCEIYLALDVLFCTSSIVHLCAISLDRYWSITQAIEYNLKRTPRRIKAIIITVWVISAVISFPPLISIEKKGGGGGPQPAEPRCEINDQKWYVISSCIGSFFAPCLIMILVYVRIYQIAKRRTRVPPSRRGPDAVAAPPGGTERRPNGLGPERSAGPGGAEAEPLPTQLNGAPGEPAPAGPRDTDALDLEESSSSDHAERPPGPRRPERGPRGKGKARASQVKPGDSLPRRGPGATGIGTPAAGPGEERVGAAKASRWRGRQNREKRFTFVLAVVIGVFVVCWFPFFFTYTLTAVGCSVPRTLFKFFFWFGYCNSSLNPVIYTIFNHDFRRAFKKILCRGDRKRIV
# [8] = biological target: Receptor tyrosine-protein kinase erbB-2 (Homo sapiens, UniProt P04626); assay type: functional
# Note: assay procedure not described here.
# Chain of Gamma-aminobutyric acid receptor subunit alpha-1/alpha-2/beta-2/gamma-2 (P14867 whole entry): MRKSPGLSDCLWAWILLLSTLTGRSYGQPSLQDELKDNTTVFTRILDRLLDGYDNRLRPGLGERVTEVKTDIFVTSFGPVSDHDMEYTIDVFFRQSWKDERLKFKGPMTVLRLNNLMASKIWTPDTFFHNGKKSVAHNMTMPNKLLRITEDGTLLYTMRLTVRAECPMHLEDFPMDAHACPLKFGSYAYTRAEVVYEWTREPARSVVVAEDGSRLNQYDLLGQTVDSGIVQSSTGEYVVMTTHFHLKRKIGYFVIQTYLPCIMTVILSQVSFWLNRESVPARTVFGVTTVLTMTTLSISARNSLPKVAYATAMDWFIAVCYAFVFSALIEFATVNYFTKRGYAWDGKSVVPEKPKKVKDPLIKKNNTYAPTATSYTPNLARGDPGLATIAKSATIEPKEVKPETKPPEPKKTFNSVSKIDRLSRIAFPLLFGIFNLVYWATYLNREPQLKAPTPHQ
# Chain of Gamma-aminobutyric acid receptor subunit alpha-1/alpha-2/beta-2/gamma-2 (P47870 whole entry): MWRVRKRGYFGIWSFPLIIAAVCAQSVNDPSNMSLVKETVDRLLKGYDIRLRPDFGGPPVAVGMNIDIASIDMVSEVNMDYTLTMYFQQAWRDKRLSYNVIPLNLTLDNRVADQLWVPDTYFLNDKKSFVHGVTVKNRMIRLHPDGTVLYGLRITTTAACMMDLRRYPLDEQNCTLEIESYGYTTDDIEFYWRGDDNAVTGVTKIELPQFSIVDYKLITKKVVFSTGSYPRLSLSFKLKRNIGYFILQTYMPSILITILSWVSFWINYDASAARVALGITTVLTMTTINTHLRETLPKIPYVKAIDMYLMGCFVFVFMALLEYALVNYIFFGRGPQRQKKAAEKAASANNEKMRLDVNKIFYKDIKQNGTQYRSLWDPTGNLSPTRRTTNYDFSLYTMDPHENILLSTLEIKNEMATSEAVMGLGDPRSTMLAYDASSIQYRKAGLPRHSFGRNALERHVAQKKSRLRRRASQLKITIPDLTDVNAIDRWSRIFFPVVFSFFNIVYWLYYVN
# Chain of Gamma-aminobutyric acid receptor subunit alpha-1/alpha-2/beta-2/gamma-2 (P18507 whole entry): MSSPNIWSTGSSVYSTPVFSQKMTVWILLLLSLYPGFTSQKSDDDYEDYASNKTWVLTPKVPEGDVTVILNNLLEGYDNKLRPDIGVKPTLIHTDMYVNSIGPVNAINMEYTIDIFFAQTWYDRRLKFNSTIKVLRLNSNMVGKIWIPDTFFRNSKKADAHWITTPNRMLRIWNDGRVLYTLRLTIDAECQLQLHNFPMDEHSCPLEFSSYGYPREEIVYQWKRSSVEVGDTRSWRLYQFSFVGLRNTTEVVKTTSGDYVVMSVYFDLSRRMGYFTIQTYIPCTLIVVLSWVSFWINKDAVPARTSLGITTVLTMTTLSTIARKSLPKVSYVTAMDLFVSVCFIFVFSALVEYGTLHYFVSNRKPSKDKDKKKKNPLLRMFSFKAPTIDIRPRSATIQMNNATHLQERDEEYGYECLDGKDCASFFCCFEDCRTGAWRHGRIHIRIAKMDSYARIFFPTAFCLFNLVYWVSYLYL
# Chain of Gamma-aminobutyric acid receptor subunit alpha-1/alpha-2/beta-2/gamma-2 (P47869 whole entry): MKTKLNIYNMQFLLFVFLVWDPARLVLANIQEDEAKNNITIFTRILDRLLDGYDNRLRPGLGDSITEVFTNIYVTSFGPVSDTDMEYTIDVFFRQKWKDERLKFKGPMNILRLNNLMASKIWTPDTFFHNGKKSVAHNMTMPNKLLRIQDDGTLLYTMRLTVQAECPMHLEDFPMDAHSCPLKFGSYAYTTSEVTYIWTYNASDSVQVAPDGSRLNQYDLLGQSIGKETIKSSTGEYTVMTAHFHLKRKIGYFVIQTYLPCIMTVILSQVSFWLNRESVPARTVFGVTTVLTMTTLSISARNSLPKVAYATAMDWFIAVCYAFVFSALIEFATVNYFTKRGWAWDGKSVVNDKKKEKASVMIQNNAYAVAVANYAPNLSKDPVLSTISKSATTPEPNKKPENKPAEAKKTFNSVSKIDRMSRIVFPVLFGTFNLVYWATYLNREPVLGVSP
# Chain of Receptor tyrosine-protein kinase erbB-2 (P04626 whole entry): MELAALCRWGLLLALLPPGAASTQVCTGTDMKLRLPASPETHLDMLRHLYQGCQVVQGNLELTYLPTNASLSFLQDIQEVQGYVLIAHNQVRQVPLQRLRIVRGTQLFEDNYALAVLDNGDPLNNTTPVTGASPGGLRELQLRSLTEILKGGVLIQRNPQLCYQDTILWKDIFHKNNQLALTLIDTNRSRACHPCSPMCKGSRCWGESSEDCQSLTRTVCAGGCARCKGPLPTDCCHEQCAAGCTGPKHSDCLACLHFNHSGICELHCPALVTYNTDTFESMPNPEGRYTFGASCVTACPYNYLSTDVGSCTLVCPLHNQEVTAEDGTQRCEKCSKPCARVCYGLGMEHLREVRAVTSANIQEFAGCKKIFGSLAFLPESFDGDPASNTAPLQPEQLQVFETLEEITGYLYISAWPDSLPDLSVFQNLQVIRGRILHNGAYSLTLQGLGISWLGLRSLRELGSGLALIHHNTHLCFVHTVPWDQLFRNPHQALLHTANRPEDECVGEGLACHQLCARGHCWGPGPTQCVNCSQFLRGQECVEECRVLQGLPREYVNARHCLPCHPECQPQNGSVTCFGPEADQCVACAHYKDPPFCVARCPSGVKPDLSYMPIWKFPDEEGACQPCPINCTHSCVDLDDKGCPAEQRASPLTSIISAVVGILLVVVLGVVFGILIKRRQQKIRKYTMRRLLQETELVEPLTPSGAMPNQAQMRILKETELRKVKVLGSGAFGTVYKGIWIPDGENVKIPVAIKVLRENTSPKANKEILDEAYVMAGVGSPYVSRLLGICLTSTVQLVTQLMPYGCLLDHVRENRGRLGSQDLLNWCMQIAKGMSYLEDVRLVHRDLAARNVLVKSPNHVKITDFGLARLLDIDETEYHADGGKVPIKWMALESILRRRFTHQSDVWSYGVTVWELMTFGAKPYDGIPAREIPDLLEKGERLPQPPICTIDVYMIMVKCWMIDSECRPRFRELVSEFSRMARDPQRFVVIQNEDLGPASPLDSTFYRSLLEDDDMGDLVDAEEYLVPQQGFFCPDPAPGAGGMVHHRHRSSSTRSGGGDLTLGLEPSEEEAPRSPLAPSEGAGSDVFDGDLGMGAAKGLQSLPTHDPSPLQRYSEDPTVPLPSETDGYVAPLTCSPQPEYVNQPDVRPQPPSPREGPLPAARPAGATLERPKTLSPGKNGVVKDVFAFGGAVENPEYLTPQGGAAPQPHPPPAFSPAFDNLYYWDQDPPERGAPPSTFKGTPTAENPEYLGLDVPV
structure (smiles),measurement,setting,value
CC(C)/N=c1\cc2n(-c3ccc(Cl)cc3)c3ccccc3nc-2cc1Nc1ccc(Cl)cc1 [CLOFAZIMINE],AC50,[1],0.13 µM
CCOCC(O)COc1ccc(NC(=O)CC[S+](C)C)cc1 (stereo unspecified),AC50,[2],> 30 µM
same,AC50,[3],> 30 µM
CN(C)CCC=C1c2ccccc2CCc2ccccc21 [AMITRIPTYLINE],AC50,[4],> 30 µM
same,AC50,[5],0.0299 µM
same,AC50,[6],3.77 µM
same,AC50,[1],> 30 µM
same,AC50,[7],2.92 µM
O=C(O)[C@H]1/C(=C/CO)O[C@@H]2CC(=O)N21 [CLAVULANIC ACID],AC50,[2],> 30 µM
same,AC50,[3],> 30 µM
O=C(c1ccccc1)c1ccc2n1CCC2C(=O)O (stereo unspecified) [KETOROLAC],AC50,[5],> 10 µM
CCOC(=O)Nc1ccc(NCc2ccc(F)cc2)nc1N [FLUPIRTINE],AC50,[1],3 µM
NCC1(CC(=O)O)CCCCC1 [GABAPENTIN],AC50,[2],> 30 µM
same,AC50,[4],> 30 µM
same,AC50,[5],> 10 µM
same,AC50,[6],> 10 µM
same,AC50,[7],> 10 µM
same,AC50,[8],> 30 µM
CCN(CCO)CCCC(C)Nc1ccnc2cc(Cl)ccc12 (stereo unspecified) [HYDROXYCHLOROQUINE],AC50,[5],> 10 µM
CC(C)C[C@H](NC(=O)[C@H](Cc1ccccc1)NC(=O)c1cnccn1)B(O)O [BORTEZOMIB],AC50,[5],> 30 µM
same,AC50,[1],> 30 µM
C[C@H](CCC(=O)O)[C@H]1CC[C@H]2[C@@H]3[C@H](O)C[C@@H]4C[C@H](O)CC[C@]4(C)[C@H]3CC[C@]12C [CHENODIOL],AC50,[2],> 30 µM
same,AC50,[3],> 30 µM
same,AC50,[8],> 30 µM
Nc1c2c(nc3ccccc13)CCCC2O (stereo unspecified) [VELNACRINE],AC50,[2],> 30 µM
same,AC50,[3],> 10 µM
same,AC50,[8],> 30 µM
C#CCN(C)Cc1ccccc1 [PARGYLINE],AC50,[2],> 30 µM
CN(C)CCCC1(c2ccc(F)cc2)OCc2cc(C#N)ccc21 (stereo unspecified) [CITALOPRAM],AC50,[4],> 30 µM
same,AC50,[6],> 10 µM
same,AC50,[1],> 30 µM
same,AC50,[7],> 10 µM
N[C@@H](Cc1cc(I)c(Oc2cc(I)c(O)c(I)c2)c(I)c1)C(=O)O [LEVOTHYROXINE],AC50,[2],> 30 µM
CC[N+](CC)(CCNC(=O)C(=O)NCC[N+](CC)(CC)Cc1ccccc1Cl)Cc1ccccc1Cl [AMBENONIUM],AC50,[1],> 30 µM
CO[C@@H]1[C@@H](OC(N)=O)[C@@H](O)[C@H](Oc2ccc3c(O)c(NC(=O)c4ccc(O)c(CC=C(C)C)c4)c(=O)oc3c2C)OC1(C)C [NOVOBIOCIN],AC50,[2],> 30 µM
same,AC50,[3],> 30 µM
same,AC50,[8],> 30 µM
COc1cc2c(cc1OC)C1CC(=O)C(CC(C)C)CN1CC2 (stereo unspecified) [TETRABENAZINE],AC50,[2],> 30 µM
same,AC50,[3],> 30 µM
same,AC50,[8],> 30 µM
CCC[C@@]1(CCc2ccccc2)CC(O)=C([C@H](CC)c2cccc(NS(=O)(=O)c3ccc(C(F)(F)F)cn3)c2)C(=O)O1,AC50,[2],22 µM
same,AC50,[8],> 30 µM
C[C@]12CCC(=O)C=C1CC[C@H]1[C@@H]3CC[C@](O)(C(=O)CO)[C@@]3(C)C[C@H](O)[C@@]12F [FLUDROCORTISONE],AC50,[4],> 30 µM
same,AC50,[5],> 10 µM
same,AC50,[6],> 10 µM
same,AC50,[1],> 30 µM
same,AC50,[7],> 10 µM
C[C@H](CS)C(=O)N1CCC[C@H]1C(=O)O [CAPTOPRIL],AC50,[5],> 10 µM
same,AC50,[6],> 10 µM
same,AC50,[7],> 10 µM
CN(C)CCN(Cc1ccccc1)c1ccccn1 [TRIPELENNAMINE],AC50,[5],10.8 µM
same,AC50,[1],> 10 µM
C=CC1=C(C(=O)O)N2C(=O)[C@@H](NC(=O)/C(=N\O)c3csc(N)n3)[C@H]2SC1,AC50,[5],> 10 µM
same,AC50,[1],> 30 µM
CN(C)CCOC(c1ccc(Cl)cc1)c1ccccn1 (stereo unspecified) [CARBINOXAMINE],AC50,[2],> 30 µM
same,AC50,[1],> 30 µM
CCOC(=O)[C@H](CCc1ccccc1)N[C@@H](C)C(=O)N1Cc2ccccc2C[C@H]1C(=O)O,AC50,[4],> 30 µM
same,AC50,[5],> 10 µM
same,AC50,[6],> 10 µM
same,AC50,[1],> 30 µM
same,AC50,[7],> 10 µM
NCCCNCCSP(=O)(O)O [AMIFOSTINE],AC50,[1],> 30 µM
CC(=O)Oc1ccccc1C(=O)O [ASPIRIN],AC50,[4],> 30 µM
same,AC50,[5],> 10 µM
same,AC50,[6],> 10 µM
same,AC50,[1],15.1 µM
same,AC50,[7],> 10 µM
CCC1(c2ccccc2)C(=O)NCNC1=O [PRIMIDONE],AC50,[5],> 10 µM
O=C(O)COC(=O)Cc1ccccc1Nc1c(Cl)cccc1Cl [ACECLOFENAC],AC50,[5],> 10 µM
same,AC50,[6],> 10 µM
same,AC50,[1],> 30 µM
CC(=O)SCC(Cc1ccccc1)C(=O)NCC(=O)OCc1ccccc1 (stereo unspecified) [RACECADOTRIL],AC50,[5],> 10 µM
same,AC50,[6],> 10 µM
same,AC50,[1],> 30 µM
same,AC50,[7],> 10 µM
CN(C)CCc1c[nH]c2ccc(CS(=O)(=O)N3CCCC3)cc12 [ALMOTRIPTAN],AC50,[2],> 30 µM
same,AC50,[1],> 30 µM
CC(C)(CO)c1cc2cc(NC(=O)C3(c4ccc5c(c4)OC(F)(F)O5)CC3)c(F)cc2n1C[C@@H](O)CO [TEZACAFTOR],AC50,[3],> 30 µM
CNC1(C)C2CCC(C2)C1(C)C (stereo unspecified) [MECAMYLAMINE],AC50,[5],> 10 µM
CS(=O)(=O)Nc1ccc([N+](=O)[O-])cc1Oc1ccccc1 [NIMESULIDE],AC50,[2],> 30 µM
CCN(CC)CCn1c(=O)c(Cc2ccc(OC)cc2)nc2ccccc21 [CAROVERINE],AC50,[5],8.9 µM
same,AC50,[1],> 30 µM
Cc1c(C)c2c(c(C)c1O)CCC(C)(COc1ccc(CC3SC(=O)NC3=O)cc1)O2 (stereo unspecified) [TROGLITAZONE],AC50,[2],6.8 µM
same,AC50,[3],> 30 µM
same,AC50,[4],> 30 µM
same,AC50,[5],12.5 µM
same,AC50,[1],> 30 µM
O=C(Cc1cccs1)N[C@@H]1C(=O)N2C(C(=O)[O-])=C(C[n+]3ccccc3)CS[C@H]12 [CEPHALORIDINE],AC50,[2],> 30 µM
C[C@H](Cn1cnc2c(N)ncnc21)OCP(=O)(O)O [TENOFOVIR ANHYDROUS],AC50,[1],> 30 µM
COC(=O)CCc1ccc(OCC(O)CNC(C)C)cc1 (stereo unspecified) [ESMOLOL],AC50,[5],> 30 µM
NCCCCCC(=O)O [AMINOCAPROIC ACID],AC50,[5],> 10 µM
same,AC50,[1],> 10 µM
CC(C)NCC(O)COc1ccc(CC(N)=O)cc1 (stereo unspecified) [ATENOLOL],AC50,[1],> 30 µM
OCCOCCN1CCN(C(c2ccccc2)c2ccc(Cl)cc2)CC1 (stereo unspecified) [HYDROXYZINE],AC50,[4],> 30 µM
same,AC50,[5],1.66 µM
same,AC50,[6],> 10 µM
same,AC50,[7],12.8 µM
Nc1nnc(-c2cccc(Cl)c2Cl)c(N)n1 [LAMOTRIGINE],AC50,[4],> 30 µM
same,AC50,[5],> 10 µM
same,AC50,[6],> 10 µM
same,AC50,[7],> 10 µM
